Assay results as given in article PMC11191095, “QSAR Reveals Decreased Lipophilicity of Polar Residues Determines the Selectivity of Antimicrobial Peptide Activity” (ACS Omega, 2024).
Where a SMILES comes first, the peptide text is derived from it.

What was measured:
Assay in all cases: microbe, parasite or virus in culture
[1] = system: S. aureus (MSSA) ATCC 9144; type: cell-based, Staphylococcus aureus
Method in brief: (§1)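 Peptides 128→2 μg/mL, 2-fold series; inoculum ~5 × 10^5 CFU/mL from overnight culture (OD600 0.01, mixed 1:1). MHB non-cation-adjusted for bacteria, RPMI 1640 + 2% glucose for fungi. 37 °C, 20 h, OD600. MIC50/MIC90 at 50%/90% inhibition; n ≥ 3.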

S. aureus (MRSA) USA300 = type: cell-based, Staphylococcus aureus; details: S. aureus (MRSA) USA300 (R)
Method in brief: as §1

S. aureus (MRSA) 1199B = type: cell-based, Staphylococcus aureus; details: S. aureus (MRSA) 1199B (R)
Method in brief: as §1

[2] = system: S. aureus (MRSA) NCTC 13616; type: cell-based, Staphylococcus aureus; details: S. aureus (MRSA) NCTC 13616 (R)
Method in brief: as §1

C. krusei NCPF 3876 = type: cell-based
Method in brief: as §1

[3] = system: C. parapsilosis NCPF 3209; type: cell-based
Method in brief: as §1

C. glabrata NCPF 8018 = type: cell-based
Method in brief: as §1

C. tropicalis NCPF 8760 = type: cell-based
Method in brief: as §1

C. albicans NCPF 3281 = type: cell-based
Method in brief: as §1

A. baumannii AYE = type: cell-based, Acinetobacter baumannii; details: A. baumannii AYE (R)
Method in brief: as §1

A. baumannii ATCC 17978 = type: cell-based, Acinetobacter baumannii
Method in brief: as §1

E. coli NCTC 12923 = type: cell-based, Escherichia coli
Method in brief: as §1

E. coli LEC001 = type: cell-based, Escherichia coli
Method in brief: as §1

C. auris TDG 1912 = type: cell-based, Candida auris; details: TDG 1912, 20 h
Method in brief: as §1

K. pneumoniae M6 = type: cell-based, Klebsiella pneumoniae
Method in brief: as §1

K. pneumoniae NCTC 13368 = type: cell-based, Klebsiella pneumoniae; details: K. pneumoniae NCTC 13368 (R)
Method in brief: as §1

[4] = MHB, 37 °C, 20 h, OD600, min. three biological repeats

CC(C)[C@H](NC(=O)CNC(=O)[C@H](CCCNC(=N)N)NC(=O)[C@H](CCCNC(=N)N)NC(=O)[C@H](CS)NC(=O)[C@@H](NC(=O)[C@H](CS)NC(=O)[C@@H](N)CCCNC(=N)N)C(C)C)C(=O)N[C@@H](CS)C(=O)N[C@@H](CCCNC(=N)N)C(=O)N[C@@H](CS)C(=O)N[C@H](C(=O)N[C@@H](CS)C(=O)N[C@@H](CCCNC(=N)N)C(=O)N[C@@H](CCCNC(=N)N)C(N)=O)C(C)C [BTD15a] (H-RCVCRRGVCRCVCRR-NH2; N-terminus assumed)
Modal MIC ([1]; ATCC 9144, 20 h): 4.4 µM | Modal MIC ([1]; S. aureus (MSSA) ATCC 9144 (S), MHB, 37 °C, 20 h, OD600, min. three biological repeats): 8 µg/mL | Modal MIC (S. aureus (MRSA) USA300; [4]): 8 µg/mL | Modal MIC (S. aureus (MRSA) USA300; shown in µM): 4.4 µM | Modal MIC (S. aureus (MRSA) 1199B; [4]): 8 µg/mL | Modal MIC (S. aureus (MRSA) 1199B; shown in µM): 4.4 µM | Modal MIC [2, 4]: 8 µg/mL | Modal MIC ([2]; shown in µM): 4.4 µM | Modal MIC50 (C. krusei NCPF 3876; C. krusei NCPF 3876, 50% growth inhibition, RPMI 1640 + 2% glucose, 37 °C, 20 h): 16 µg/mL | Modal MIC90 (C. krusei NCPF 3876; C. krusei NCPF 3876, 90% growth inhibition, RPMI 1640 + 2% glucose, 37 °C, 20 h): 16 µg/mL | Modal MIC50 (C. krusei NCPF 3876; NCPF 3876, 20 h): 8.8 µM | Modal MIC90 (C. krusei NCPF 3876; NCPF 3876, 20 h): 8.8 µM | Modal MIC50 ([3]; C. parapsilosis NCPF 3209, 50% growth inhibition, RPMI 1640 + 2% glucose, 37 °C, 20 h): 128 µg/mL | Modal MIC90 ([3]; C. parapsilosis NCPF 3209, 90% growth inhibition, RPMI 1640 + 2% glucose, 37 °C, 20 h): 128 µg/mL | Modal MIC50 ([3]; NCPF 3209, 20 h): 70.2 µM | Modal MIC90 ([3]; NCPF 3209, 20 h): 70.2 µM | Modal MIC50 (C. glabrata NCPF 8018; C. glabrata NCPF 8018, 50% growth inhibition, RPMI 1640 + 2% glucose, 37 °C, 20 h): 128 µg/mL | Modal MIC90 (C. glabrata NCPF 8018; C. glabrata NCPF 8018, 90% growth inhibition, RPMI 1640 + 2% glucose, 37 °C, 20 h): 128 µg/mL | Modal MIC50 (C. glabrata NCPF 8018; NCPF 8018, 20 h): 70.2 µM | Modal MIC90 (C. glabrata NCPF 8018; NCPF 8018, 20 h): 70.2 µM | Modal MIC50 (C. tropicalis NCPF 8760; C. tropicalis NCPF 8760, 50% growth inhibition, RPMI 1640 + 2% glucose, 37 °C, 20 h): 8 µg/mL | Modal MIC90 (C. tropicalis NCPF 8760; C. tropicalis NCPF 8760, 90% growth inhibition, RPMI 1640 + 2% glucose, 37 °C, 20 h): 8 µg/mL | Modal MIC50 (C. tropicalis NCPF 8760; NCPF 8760, 20 h): 4.4 µM | Modal MIC90 (C. tropicalis NCPF 8760; NCPF 8760, 20 h): 4.4 µM | Modal MIC50 (C. albicans NCPF 3281; C. albicans NCPF 3281, 50% growth inhibition, RPMI 1640 + 2% glucose, 37 °C, 20 h): 32 µg/mL | Modal MIC90 (C. albicans NCPF 3281; C. albicans NCPF 3281, 90% growth inhibition, RPMI 1640 + 2% glucose, 37 °C, 20 h): 64 µg/mL | Modal MIC50 (C. albicans NCPF 3281; NCPF 3281, 20 h): 17.5 µM | Modal MIC90 (C. albicans NCPF 3281; NCPF 3281, 20 h): 35 µM | Modal MIC (A. baumannii AYE; [4]): 8 µg/mL | Modal MIC (A. baumannii AYE; shown in µM): 4.4 µM | Modal MIC (A. baumannii ATCC 17978; A. baumannii ATCC 17978 (S), MHB, 37 °C, 20 h, OD600, min. three biological repeats): 4 µg/mL | Modal MIC (A. baumannii ATCC 17978; ATCC 17978, 20 h): 2.2 µM | Modal MIC (E. coli NCTC 12923; E. coli NCTC 12923 (S), MHB, ~5×10^5 CFU/mL, 37 °C, 20 h, OD600, min. three biological repeats): 8 µg/mL | Modal MIC (E. coli NCTC 12923; NCTC 12923, 20 h): 4.4 µM | Modal MIC (E. coli LEC001; E. coli LEC001 (R), MHB, 37 °C, 20 h, OD600, min. three biological repeats): 16 µg/mL | Modal MIC (E. coli LEC001; LEC001, 20 h): 8.8 µM | Modal MIC50 (C. auris TDG 1912): > 70.2 µM | Modal MIC90 (C. auris TDG 1912): > 70.2 µM | Modal MIC (K. pneumoniae M6; K. pneumoniae M6 (S), MHB, 37 °C, 20 h, OD600, min. three biological repeats): 32 µg/mL | Modal MIC (K. pneumoniae M6; M6, 20 h): 17.5 µM | Modal MIC (K. pneumoniae NCTC 13368; [4]): 32 µg/mL | Modal MIC (K. pneumoniae NCTC 13368; shown in µM): 17.5 µM
